Source: PMC11574021, “CEP192 localises mitotic Aurora-A activity by priming its interaction with TPX2” (The EMBO Journal, 2024)

Assays:
Assay type in all cases: cell-based, Homo sapiens
Eg5 in RPE1 p53-/- cells = assay: Immunofluorescence, Eg5 spindle signal intensity, RPE1 p53-/-; details: Aurora-A inhibitor 30 min (500 nM)
Procedure: (§1) As noted in the figures, the following drugs were incubated with cells for 30 min at 37 °C: Aurora-B-i ZM447439 2 µM [10 mM], PLK1-I BI2536 1 µM [10 mM] and Aurora-A-i MLN8237 [5 mM] was used at 250 and 500 nM in U251 and RPE1 cells, respectively. Drugs were resuspended in DMSO to the stock concentrations indicated in square brackets. BI2536 (HY-50698), MLN8237 (HY-10971) and ZM447439 (HY-10128) were all purchased from MedChemExpress. For western blotting, a 20-min pre-treatment with proteasome inhibitor (20 µM MG-132, MerckMillipore, 47490 [20 mM]) was required prior to the addition of DMSO control or kinase inhibitors. This prevented mitotic exit as a consequence of checkpoint override following Aurora-A and Aurora-B inhibitor addition.
(§2) For siRNA depletion, 1 × 10^5 cells were seeded in six-well plates and transfected as described above for 48 h prior to fixation. For all other experiments, 2.5 × 10^5 cells were seeded in six-well plates and grown for 24 h before fixation. All cells were grown on 12 mm diameter glass coverslips (VWR, 631–1577). […]
(§3) For CEP192, LATS2-pS83, PCNT, PLK1 and γ-tubulin intensity, a 20-pixel diameter circle was centred over each centrosome and the intensity measured. […]

[1] = system: NuMA in RPE1 p53-/- cells; assay: Immunofluorescence, NuMA spindle pole signal intensity, RPE1 p53-/-; details: Aurora-A inhibitor 30 min (500 nM), compared with RΔ11
Procedure: as §1, §2, §3

[2] = system: Aurora-A:TACC3 complexes in RPE1 p53-/- cells; assay: Proximity ligation assay Aurora-A:TACC3, RPE1 p53-/-; details: siRNA 48 h
Procedure: siRNA depletion was carried out by reverse transfection using oligofectamine (Thermo Scientific, 12252011) and lipofectamine RNAiMax (Thermo Scientific, 13778075), according to the manufacturer’s instructions, for U251 and RPE1 cells, respectively. For immunofluorescence, 1 × 10^5 cells were seeded in six-well plates and simultaneously transfected with 60 pmol siRNA duplex and 3 µl transfection reagent diluted in 200 µl Opti-MEM serum-free medium. Growth medium was added to a final volume of 2 ml. For western blotting, 1 × 10^6 cells were seeded in 10 cm dishes and transfected with 300 pmol siRNA duplex and 15 µl transfection reagent diluted in 1000 µl Opti-MEM. Growth medium was added to a final volume of 10 ml. Cells were incubated with siRNA for 48 h prior to fixation or harvesting. As a negative control (siControl) Silencer select negative control No.1 siRNA was transfected as above. For TACC3 depletion, where two siRNA duplexes were used, 40 pmol of each was transfected per well.
Cells were seeded and fixed as above, then a proximity ligation assay (PLA) was carried out according to the manufacturer’s instructions with the supplied buffers (Navinci, NaveniFlex Cell MR Red, NC.MR.100 Red). All incubations are for 1 h at 37 °C, unless otherwise stated. […]

Compound	spindle levels of Eg5 (Eg5 in RPE1 p53-/- cells)	NuMA levels at spindle poles [1]	PLA foci formation between TACC3 and Aurora-A antibodies [2]
COc1cc(Nc2ncc3c(n2)-c2ccc(Cl)cc2C(c2c(F)cccc2OC)=NC3)ccc1C(=O)O [Alisertib]	decrease in spindle levels of Eg5	equally high in R∆11 and Aurora-A inhibitor-treated cells	–
5′-CGGUAGUGAUAAAAGCUCAtt-3′ [siTPX2]	–	–	fully prevented both spindle recruitment of TACC3 and PLA foci formation
